# What was measured:
# [1] = molecular target: T1, mouse PDGF-β receptor tyrosine kinase (Mus musculus, UniProt P05622); assay: PDGF receptor tyrosine kinase assay (32P incorporation into glutamate-tyrosine co-polymer); type: biochemical; details: read-out: PDGFr-TK IC50
# T1 construct: amplify a fragment of DNA that codes for the intracellular tyrosine kinase domain; made in house; host or cells: SF9 insect cells (baculovirus)
# Summary of the method: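 32P transfer from γ32P-ATP (50 µM ATP) to poly(Glu,Tyr) 4:1 was measured over 10 min at 25°C and counted after TCA precipitation onto filters, minus the no-enzyme background. Enzyme was baculovirus/SF9 lysate of the kinase domain, preincubated 10 min with inhibitor in Hepes pH 7.0, MnCl2, vanadate.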
# [2] = molecular target: T2, Human EGF receptor tyrosine kinase (Homo sapiens, UniProt P00533); assay: EGF receptor tyrosine kinase enzyme assay (substrate peptide phosphorylation); type: biochemical; details: read-out: EGF-FL IC50
# T2 construct: Human EGF receptor tyrosine kinase was isolated from A431 epidermoid carcinoma cells; endogenous in cells; host or cells: A431 epidermoid carcinoma cells
# T2 sequence (P00533 25-1210): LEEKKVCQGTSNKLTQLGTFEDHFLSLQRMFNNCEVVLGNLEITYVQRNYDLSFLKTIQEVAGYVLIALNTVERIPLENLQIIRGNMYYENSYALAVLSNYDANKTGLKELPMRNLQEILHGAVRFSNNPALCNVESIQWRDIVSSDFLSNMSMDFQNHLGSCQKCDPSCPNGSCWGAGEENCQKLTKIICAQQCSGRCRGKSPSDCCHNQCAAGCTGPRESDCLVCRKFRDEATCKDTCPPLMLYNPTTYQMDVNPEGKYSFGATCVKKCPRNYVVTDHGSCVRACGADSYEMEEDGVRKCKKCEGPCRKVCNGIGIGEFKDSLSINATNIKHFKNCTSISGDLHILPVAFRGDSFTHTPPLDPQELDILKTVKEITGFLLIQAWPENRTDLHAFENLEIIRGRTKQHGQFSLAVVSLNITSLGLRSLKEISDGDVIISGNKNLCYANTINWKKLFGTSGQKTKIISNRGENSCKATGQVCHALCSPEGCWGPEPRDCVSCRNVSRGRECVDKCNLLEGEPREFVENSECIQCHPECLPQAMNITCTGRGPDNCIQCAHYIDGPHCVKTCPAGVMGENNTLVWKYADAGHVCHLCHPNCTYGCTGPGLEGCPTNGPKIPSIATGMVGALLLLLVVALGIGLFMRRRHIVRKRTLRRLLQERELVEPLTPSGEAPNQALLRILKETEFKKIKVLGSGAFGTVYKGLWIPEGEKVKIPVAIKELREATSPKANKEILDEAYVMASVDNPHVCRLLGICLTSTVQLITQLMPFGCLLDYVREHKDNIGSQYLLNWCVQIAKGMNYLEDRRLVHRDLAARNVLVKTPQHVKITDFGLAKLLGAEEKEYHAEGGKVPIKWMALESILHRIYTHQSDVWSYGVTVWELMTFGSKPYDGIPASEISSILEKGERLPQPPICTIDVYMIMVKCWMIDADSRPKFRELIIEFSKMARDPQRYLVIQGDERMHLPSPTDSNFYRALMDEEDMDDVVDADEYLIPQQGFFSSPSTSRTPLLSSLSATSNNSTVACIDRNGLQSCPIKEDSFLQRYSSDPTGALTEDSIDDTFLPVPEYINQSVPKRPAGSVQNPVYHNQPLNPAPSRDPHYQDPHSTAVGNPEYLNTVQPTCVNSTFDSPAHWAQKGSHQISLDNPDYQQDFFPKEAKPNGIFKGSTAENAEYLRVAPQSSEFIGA
# PDGF receptor = PDGF receptor autophosphorylation in rat aorta smooth muscle cells; type: cell-based; details: read-out: Inhibition of PDGF-Stimulated Receptor Auto Phosphorylation in Rat Aortic Smooth Muscle Cells (IC50); PDGF-BB 30 ng/mL for 5 minutes after 2 hours with compound
# Procedure: Rat aorta smooth muscle cells (RASMC) were isolated from the thoracic aorta of rats and explanted according to the method of Ross, J. Cell. Biol., 30:172-186 (1971). Cells were grown in Dulbecco's modified Eagle's medium (DMEM, Gibco) containing 10% fetal calf serum (FBS, Hyclone, Logan, Utah), 1% glutamine (Gibco) and 1% penicillin/streptomycin (Gibco). Cells were identified as smooth muscle cells by their "hill and valley" growth pattern and by fluorescent staining with a monoclonal antibody specific for SMC ∝-actin (Sigma). RASMC were used between passages 5 and 20 for all experiments. Test compounds were prepared in dimethylsulfoxide (DMSO) in order to achieve consistency in the vehicle and to ensure compound solubility. Appropriate DMSO controls were simultaneously evaluated with the test compounds.
# RASMC were grown to confluency in 100 mm dishes. Growth medium was removed and replaced with serum-free medium and cells were incubated at 37°C for an additional 24 hours. Test compounds were then added directly to the medium and cells incubated for an additional 2 hours. After 2 hours, PDGF-BB was added at a final concentration of 30 ng/mL for 5 minutes at 37°C to stimulated autophosphorylation of the PDGF receptor. Following growth factor treatment, the medium was removed, and cells were washed with cold phosphate-buffered saline and immediately lysed with 1 mL of lysis buffer (50 mM HEPES[pH 7.5], 150 mM NaCl, 10% glycerol, 1% Triton X-100, 1 mM EDTA, 1 mMEGTA, 50 mM NaF, 1 mM sodium orthovanadate, 30 mM p-nitrophenyl phosphate, 10 mM sodium pyrophosphate, 1 mM phenylmethyl sulfonyl fluoride, 10 µg/mL aprotinin, and 10 µg/mL leupeptin). Lysates were centrifuged at 10,000 × g for 10 minutes. […] Following the incubation, protein-A-sepharose beads were added for 2 hours with continuous mixing, and immune complexes bound to the beads washed four times with 1 mL lysis wash buffer. Immune complexes were solubilized in 30 µL of Laemmli sample buffer and electrophoresed in 4-20% SDS polyacrylamide gels. Following electrophoresis, separated proteins were transferred to nitrocellulose and immunoblotted with anti-phosphotyrosine antiserum. […] IC50 values were generated from the densitometric data.
# HCT-8 = assay: Soft agar colony formation, human colon adenocarcinoma cells; type: cell-based; details: HCT-8, 336 h, read-out: Inhibition of Human Colon Adenocarcinoma IC50, HCT-8
# Procedure: (§1) Three such human cell lines were identified as HCT-8, SW-620, and HT-29. In a typical assay, the cells are suspended in 0.3% soft agar containing an invention compound at various concentration levels, and are plated into six-well plates, each plate containing a 1% agar plug. The cell plates are incubated at 37°C in a humidified carbon dioxide (5%) incubator, generally for 2 weeks. At the end of the incubation period, colonies of cells are detected by staining the wells with 1 mg/mL of p-iodonitrotetrazolium violet. The cells are counted on an optical colony counter. […] TABLE III. Inhibition of Human Colon Adenocarcinoma IC50 (µM)
# HT-29 = assay: as above; type: cell-based; details: HT-29, 336 h, read-out: Inhibition of Human Colon Adenocarcinoma IC50, HT-29
# Procedure: as §1
# SW-620 = assay: as above; type: cell-based; details: SW-620, 336 h, read-out: Inhibition of Human Colon Adenocarcinoma IC50, SW-620
# Procedure: as §1
# T1 sequence (P05622 599-961 limits assumed): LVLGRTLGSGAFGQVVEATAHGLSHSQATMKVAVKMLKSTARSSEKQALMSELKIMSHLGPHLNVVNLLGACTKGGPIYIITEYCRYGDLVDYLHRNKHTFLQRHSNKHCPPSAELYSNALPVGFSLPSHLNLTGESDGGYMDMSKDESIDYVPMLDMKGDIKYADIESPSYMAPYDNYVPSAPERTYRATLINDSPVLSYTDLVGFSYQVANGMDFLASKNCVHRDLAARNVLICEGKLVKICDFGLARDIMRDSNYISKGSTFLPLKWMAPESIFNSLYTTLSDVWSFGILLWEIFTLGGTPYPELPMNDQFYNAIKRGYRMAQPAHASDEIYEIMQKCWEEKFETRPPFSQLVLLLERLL
smiles,measurement,setting,value
"Cn1c(=O)c(-c2c(Cl)cccc2Cl)cc2cnc(Nc3ccccc3)nc21 [Example 54, 6-(2,6-Dichlorophenyl)-8-methyl-2-phenylamino-8H-pyrido[2,3-d]pyrimidin-7-one]",IC50,[1],231 nM
same,IC50,[2],78 nM
same,IC50,PDGF receptor,16 nM
same,IC50,HCT-8,520 nM
same,IC50,HT-29,490 nM
same,IC50,SW-620,140 nM
